PubChem BioAssay AID504578 (NMMLSC, 2011)

System: U937 / B78H1-VCAM-1 aggregate disruption, flow cytometry
Assay: U937 and B78H1-VCAM-1 aggregate breakup by VLA-4 blockers – cell-based, flow cytometry, set 1, orthogonal assay (AID 504578)
Conditions: at 20 µM; hits give high values

SMILES | disaggregation rating
c1ccc2c(-c3ccc(OCCN4CCCC4)cc3)c(-c3ccsc3)sc2c1 | 2
c1ccc2c(-c3ccc(OCCN4CCCCC4)cc3)c(-c3ccsc3)sc2c1 | 1
COc1cccc(-c2sc3ccccc3c2-c2ccc(OCCN3CCCC3)cc2)c1 | 1
COc1cccc(-c2sc3ccccc3c2-c2ccc(OCCN(C)C)cc2)c1 | 1
c1ccc(-c2sc3ccccc3c2-c2ccc(OCCN3CCCC3)cc2)cc1 | 1
COc1ccc(-c2sc3ccccc3c2-c2ccc(OCCN(C)C)cc2)cc1 | 2
CN(C)CCOc1ccc(-c2c(-c3ccccc3)sc3ccccc23)cc1 | 2
